The subject of this data set is rodent lifetime carcinogenesis bioassay, tumor incidence TD50. The data set can be described thus: carcinogenic potency in animals, long-term in vivo studies, CPDB compilation (AID 1745844). The settings on record: mouse.

Each structure is given as a SMILES string.

For the molecule `Nc1ccc(-c2ccc(N)cc2)cc1`, the TD50 runs as follows: (strain C57BL/6JfC3Hf/Nctr x BALB/cStCrlfC3Hf/Nctr inter se, females, in drinking water, site: Harderian gland, lesion: adenoma, dosed 143 weeks, study length 143 weeks) 41.1 mg/kg/day; (strain C57BL/6JfC3Hf/Nctr x BALB/cStCrlfC3Hf/Nctr inter se, females, in drinking water, site: liver, lesion: hepatocellular adenoma, dosed 60 weeks, study length 60 weeks) 30.2 mg/kg/day; (strain C57BL/6JfC3Hf/Nctr x BALB/cStCrlfC3Hf/Nctr inter se, females, in drinking water, site: liver, lesion: hepatocellular adenoma, dosed 80 weeks, study length 80 weeks) 78.7 mg/kg/day; (strain C57BL/6JfC3Hf/Nctr x BALB/cStCrlfC3Hf/Nctr inter se, females, in drinking water, site: liver, lesion: hepatocellular carcinoma, dosed 60 weeks, study length 60 weeks) 17.9 mg/kg/day; (strain C57BL/6JfC3Hf/Nctr x BALB/cStCrlfC3Hf/Nctr inter se, females, in drinking water, site: liver, lesion: hepatocellular carcinoma, dosed 80 weeks, study length 80 weeks) 9.6 mg/kg/day; (strain C57BL/6JfC3Hf/Nctr x BALB/cStCrlfC3Hf/Nctr inter se, females, in drinking water, site: liver, lesion: hepatocellular carcinoma, dosed 143 weeks, study length 143 weeks) 18.9 mg/kg/day. Moreover, the TD50 (strain C57BL/6JfC3Hf/Nctr x BALB/cStCrlfC3Hf/Nctr inter se, females, in drinking water, site: uterus, lesion: angioma, dosed 143 weeks, study length 143 weeks) was 402 mg/kg/day; the TD50 (strain C57BL/6JfC3Hf/Nctr x BALB/cStCrlfC3Hf/Nctr inter se, males, in drinking water, site: Harderian gland, lesion: adenoma, dosed 143 weeks, study length 143 weeks) is 208 mg/kg/day; the TD50 (strain C57BL/6JfC3Hf/Nctr x BALB/cStCrlfC3Hf/Nctr inter se, males, in drinking water, site: liver, lesion: hepatocellular adenoma, dosed 60 weeks, study length 60 weeks) is 67.7 mg/kg/day; the TD50 (strain C57BL/6JfC3Hf/Nctr x BALB/cStCrlfC3Hf/Nctr inter se, males, in drinking water, site: liver, lesion: hepatocellular adenoma, dosed 80 weeks, study length 80 weeks) was 186 mg/kg/day; the TD50 (strain C57BL/6JfC3Hf/Nctr x BALB/cStCrlfC3Hf/Nctr inter se, males, in drinking water, site: liver, lesion: hepatocellular carcinoma, dosed 60 weeks, study length 60 weeks) is 74.3 mg/kg/day; the TD50 (strain C57BL/6JfC3Hf/Nctr x BALB/cStCrlfC3Hf/Nctr inter se, males, in drinking water, site: liver, lesion: hepatocellular carcinoma, dosed 80 weeks, study length 80 weeks) was 39 mg/kg/day. Moreover, the TD50 (strain C57BL/6JfC3Hf/Nctr x BALB/cStCrlfC3Hf/Nctr inter se, males, in drinking water, site: liver, lesion: hepatocellular carcinoma, dosed 143 weeks, study length 143 weeks) was 60.5 mg/kg/day; the TD50 (strain C57BL/6JfC3Hf/Nctr x BALB/cStCrlfC3Hf/Nctr, females, in drinking water, site: Harderian gland, lesion: adenoma, dosed 143 weeks, study length 143 weeks) is 51.7 mg/kg/day; the TD50 (strain C57BL/6JfC3Hf/Nctr x BALB/cStCrlfC3Hf/Nctr, females, in drinking water, site: liver, lesion: hepatocellular adenoma, dosed 60 weeks, study length 60 weeks) is 24.7 mg/kg/day; the TD50 (strain C57BL/6JfC3Hf/Nctr x BALB/cStCrlfC3Hf/Nctr, females, in drinking water, site: liver, lesion: hepatocellular adenoma, dosed 79 weeks, study length 80 weeks) was 41.9 mg/kg/day; the TD50 (strain C57BL/6JfC3Hf/Nctr x BALB/cStCrlfC3Hf/Nctr, females, in drinking water, site: liver, lesion: hepatocellular carcinoma, dosed 60 weeks, study length 60 weeks) was 17.1 mg/kg/day; the TD50 (strain C57BL/6JfC3Hf/Nctr x BALB/cStCrlfC3Hf/Nctr, females, in drinking water, site: liver, lesion: hepatocellular carcinoma, dosed 79 weeks, study length 80 weeks) is 8.99 mg/kg/day. Besides, the TD50 is, setting by setting: (strain C57BL/6JfC3Hf/Nctr x BALB/cStCrlfC3Hf/Nctr, females, in drinking water, site: liver, lesion: hepatocellular carcinoma, dosed 143 weeks, study length 143 weeks) 10.9 mg/kg/day; (strain C57BL/6JfC3Hf/Nctr x BALB/cStCrlfC3Hf/Nctr, females, in drinking water, site: uterus, lesion: angioma, dosed 143 weeks, study length 143 weeks) 335 mg/kg/day; (strain C57BL/6JfC3Hf/Nctr x BALB/cStCrlfC3Hf/Nctr, males, in drinking water, site: Harderian gland, lesion: adenoma, dosed 143 weeks, study length 143 weeks) 129 mg/kg/day; (strain C57BL/6JfC3Hf/Nctr x BALB/cStCrlfC3Hf/Nctr, males, in drinking water, site: liver, lesion: hepatocellular adenoma, dosed 60 weeks, study length 60 weeks) 60.8 mg/kg/day; (strain C57BL/6JfC3Hf/Nctr x BALB/cStCrlfC3Hf/Nctr, males, in drinking water, site: liver, lesion: hepatocellular adenoma, dosed 80 weeks, study length 80 weeks) 94.8 mg/kg/day; (strain C57BL/6JfC3Hf/Nctr x BALB/cStCrlfC3Hf/Nctr, males, in drinking water, site: liver, lesion: hepatocellular carcinoma, dosed 60 weeks, study length 60 weeks) 97.5 mg/kg/day. Further, the TD50 (strain C57BL/6JfC3Hf/Nctr x BALB/cStCrlfC3Hf/Nctr, males, in drinking water, site: liver, lesion: hepatocellular carcinoma, dosed 80 weeks, study length 80 weeks) is 33.2 mg/kg/day and the TD50 (strain C57BL/6JfC3Hf/Nctr x BALB/cStCrlfC3Hf/Nctr, males, in drinking water, site: liver, lesion: hepatocellular carcinoma, dosed 143 weeks, study length 143 weeks) was 31.2 mg/kg/day.

For `CCOc1ccc(NC(=O)CC(C)O)cc1` (stereo not given), the TD50 (strain B6C3F1, females, in feed, site: liver, lesion: hepatocellular adenoma, dosed 72 weeks, study length 84 weeks) was 4000 mg/kg/day; the TD50 (strain B6C3F1, females, in feed, site: lung, lesion: alveolar-cell tumor, dosed 72 weeks, study length 84 weeks) was 11300 mg/kg/day; the TD50 (strain B6C3F1, males, in feed, site: all sites, lesion: lymphoma and leukemia, combined, dosed 70 weeks, study length 84 weeks) amounted to 2740 mg/kg/day; the TD50 (strain B6C3F1, males, in feed, site: kidney, lesion: renal-cell adenoma, dosed 70 weeks, study length 84 weeks) is 5580 mg/kg/day; the TD50 (strain B6C3F1, males, in feed, site: kidney, lesion: renal-cell carcinoma, dosed 70 weeks, study length 84 weeks) was 5530 mg/kg/day; the TD50 (strain B6C3F1, males, in feed, site: liver, lesion: hemangioma, dosed 70 weeks, study length 84 weeks) came out at 406000 mg/kg/day. Moreover, the TD50 came to 17500 mg/kg/day (strain B6C3F1, males, in feed, site: liver, lesion: hepatocellular adenoma, dosed 70 weeks, study length 84 weeks); 5280 mg/kg/day (strain B6C3F1, males, in feed, site: lung, lesion: alveolar-cell tumor, dosed 70 weeks, study length 84 weeks); 46400 mg/kg/day (strain B6C3F1, males, in feed, site: urinary bladder, lesion: papilloma, dosed 70 weeks, study length 84 weeks).

What is called TD50 is the dose at which the toxic effect under study appears in half of the subjects.

(Values after PubChem BioAssay AID1745844 (Carcinogenic Potency Database (CPDB), 2022).)
